By bioavailability is commonly meant the share of a dose that reaches the circulation, judged against a reference dose that is usually intravenous.

From patent US7666446B2, “Oral formulation for delivery of poorly absorbed drugs” (ProCarrier, Inc., priority 2004, dated 2010) come the findings set out here.

The conditions of data set [1]: diabetic rats, intraduodenal, insulin 50 IU/kg in carrier (100 units). An excerpt:
(§1) The abdominal muscle was sutured under the skin. […] Four rats were in each treatment group. […]

For a further data set, the system named is diabetes induced rats. The experiment in a line: Serum glucose after intraduodenal insulin/PEP in diabetic rats. To be noted: insulin 50 IU/kg in carrier (100 units). Type of data set: in vivo.
From the text: as §1

A further data set has as its system non-diabetic rats. The experiment in a line: Serum glucose after intraduodenal insulin/PEP in non-diabetic rats. Type of data set: in vivo. The conditions noted are these: insulin 50 IU/kg in carrier (100 units).
From the text: as §1

Data set [2] in a line: Plasma calcitonin after intraduodenal calcitonin/PEP (ELISA). To be noted: male, Sprague-Dawley, rat, rats, read-out: Average plasma concentration of Calcitonin. The format is in vivo. On the procedure:
as §1
Plasma was analyzed by ELISA according to methods well known in the art.
(In general: An ELISA detects its analyte on a solid surface through an enzyme-linked reagent.)

The nature of data set [3]: Plasma netilmicin after intraduodenal netilmicin/PEP (HPLC). Type of data set: in vivo. The conditions noted are these: male, Sprague-Dawley, rat, rats. On the procedure:
as §1
Netilmicin solution was mixed with a solution of methylcellulose, and this mixture was added to solutions of glucosamine and sucrose stearate in water before administration to rats. […] The contents of netilmicin/PEP comprised an individual dosage of 80 mg/kg netilmicin, 400 mg/kg sucrose stearate, glucosamine in a 1:4 mole ratio of netilmicin to glucosamine, and methylcellulose in a 1:0.5 mole ratio of netilmicin to methylcellulose. […] Plasma was analyzed by HPLC, and bioavailability was calculated.

Data set [4] is described as follows: Plasma teicoplanin after intraduodenal teicoplanin/PEP (HPLC). The format is in vivo. To be noted: rats. As to the method:
as §1
Teicoplanin solution was mixed with a solution of methylcellulose, and this mixture was added to solutions of glucosamine and sucrose stearate in water before administration to rats. […] The contents of teicoplanin/PEP comprised an individual dosage of 64 mg/kg teicoplanin, 400 mg/kg sucrose stearate, glucosamine in a 1:4 mole ratio of teicoplanin to glucosamine, and methylcellulose in a 1:0.5 mole ratio of teicoplanin to methylcellulose. […] Plasma was analyzed by HPLC, and bioavailability was calculated.

A short description of data set [5]: Plasma isepamicin after intraduodenal isepamicin/PEP (HPLC). The format is in vivo. The conditions noted are these: male, Sprague-Dawley, rat, other: intraduodenal, rats. As to the method:
as §1
Isepamicin solution was mixed with methylcellulose solution, and the resulting mixture was mixed with solutions of glucosamine and sucrose stearate 16 in water before administration to rats. […] The contents of isepamicin/PEP comprised an individual dosage of 75 mg/kg isepamicin, 400 mg/kg sucrose stearate, glucosamine in a 1:4 mole ratio of isepamicin to glucosamine, and methylcellulose in a 1:0.5 mole ratio of isepamicin to methylcellulose. […] Plasma was analyzed by HPLC, and bioavailability was calculated.

Data set [6] is described as follows: Plasma aztreonam after intraduodenal aztreonam/PEP (HPLC). Type of data set: in vivo. The conditions noted are these: male, Sprague-Dawley, rat, rats. On the procedure:
as §1
Aztreonam solution (containing arginine as a pH adjuster) was mixed with a solution of methylcellulose, and this mixture was added to solutions of glucosamine and sucrose palmitate in water before administration to rats. […] The contents of aztreonam/PEP comprised an individual dosage of 40 mg/kg aztreonam, 400 mg/kg sucrose palmitate, glucosamine in a 1:4 mole ratio of aztreonam to glucosamine, methylcellulose in a 1:0.5 mole ratio of aztreonam to methylcellulose, and arginine in a 1:0.6 mole ratio of aztreonam to arginine. […] Plasma was analyzed by HPLC, and bioavailability was calculated.

“insulin: insulin given with methylcellulose, sucrose laurate 16 and glucosamine (insulin/PEP composition)”: the serum insulin entry in data set [1] is listed as “detected”. The “hypoglycemic effect (serum glucose)” value in the data set on diabetes induced rats is reported as “significant hypoglycemic effects were observed”. Moreover, the “hypoglycemic response (serum glucose)” value in the data set with non-diabetic rats was “No significant hypoglycemic response”.
With `CC(C)C[C@H](NC(=O)[C@H](CCCCN)NC(=O)CNC(=O)[C@H](CC(C)C)NC(=O)[C@@H](NC(=O)[C@@H]1CSSC[C@H](N)C(=O)N[C@@H](CO)C(=O)N[C@@H](CC(N)=O)C(=O)N[C@@H](CC(C)C)C(=O)N[C@@H](CO)C(=O)N[C@@H]([C@@H](C)O)C(=O)N1)C(C)C)C(=O)N[C@@H](CO)C(=O)N[C@@H](CCC(N)=O)C(=O)N[C@@H](CCC(=O)O)C(=O)N[C@@H](CC(C)C)C(=O)N[C@@H](Cc1c[nH]cn1)C(=O)N[C@@H](CCCCN)C(=O)N[C@@H](CC(C)C)C(=O)N[C@@H](CCC(N)=O)C(=O)N[C@H](C(=O)N[C@@H](Cc1ccc(O)cc1)C(=O)N1CCC[C@H]1C(=O)N[C@@H](CCCNC(=N)N)C(=O)N[C@H](C(=O)N[C@@H](CC(N)=O)C(=O)N[C@H](C(=O)NCC(=O)N[C@@H](CO)C(=O)NCC(=O)N[C@H](C(=O)N1CCC[C@H]1C(N)=O)[C@@H](C)O)[C@@H](C)O)[C@@H](C)O)[C@@H](C)O` [Calcitonin], in data set [2] (calcitonin/PEP 2 mg/kg calcitonin, 30 min), the level at 0.5 h amounted to 8.61 ng/mL. Besides, the level at 0.75 h in data set [2] (calcitonin/PEP 2 mg/kg calcitonin, 45 min) came to 10.9 ng/mL. The level at 1 h in data set [2] (calcitonin/PEP 2 mg/kg calcitonin, 60 min) came to 7.55 ng/mL. For the same molecule, in data set [2] (calcitonin/PEP 2 mg/kg calcitonin, 90 min), the level at 1.5 h was determined as 3.36 ng/mL. For the same molecule, the level at 2 h in data set [2] (calcitonin/PEP 2 mg/kg calcitonin, 120 min) was 1.72 ng/mL. The level at 3 h in data set [2] (calcitonin/PEP 2 mg/kg calcitonin, 180 min) was 0.69 ng/mL. Also, the level at 4 h in data set [2] (calcitonin/PEP 2 mg/kg calcitonin, 240 min) is 0.99 ng/mL. Besides, the level at 0.25 h in data set [2] (calcitonin/PEP (2 mg/kg calcitonin, 40 mg/kg sucrose laurate 16, glucosamine, methylcellulose), 15 min) is 8.02 ng/mL.
`CCN[C@@H]1C[C@H](N)[C@@H](O[C@H]2OC(CN)=CC[C@H]2N)[C@H](O)[C@H]1O[C@H]1OC[C@](C)(O)[C@H](NC)[C@H]1O` [Netilmicin] displayed a concentration at 60 min in data set [3] (other: intraduodenal, netilmicin/PEP 80 mg/kg netilmicin, 60 min) of 70700 ng/mL. In data set [3] (other: intraduodenal, netilmicin/PEP 80 mg/kg netilmicin, 120 min), the concentration at 120 min was determined as 39300 ng/mL. This molecule registered a concentration at 180 min in data set [3] (other: intraduodenal, netilmicin/PEP 80 mg/kg netilmicin, 180 min) of 38900 ng/mL. Further, in data set [3] (other: intraduodenal, netilmicin/PEP 80 mg/kg netilmicin, 240 min), the concentration at 240 min came out at 35800 ng/mL. In data set [3] (other: intraduodenal, netilmicin/PEP 80 mg/kg netilmicin, 360 min), the concentration at 360 min was 34800 ng/mL. In data set [3] (other: intraduodenal, netilmicin/PEP (80 mg/kg netilmicin, 400 mg/kg sucrose stearate, glucosamine, methylcellulose), 30 min), this molecule returned a concentration at 30 min of 62100 ng/mL. Moreover, the bioavailability in data set [3] (netilmicin/PEP 80 mg/kg netilmicin, read-out: percent bioavailability) came to 73%.
Take Teicoplanin: the percent bioavailability in data set [4] (teicoplanin/PEP 64 mg/kg teicoplanin) is 35.07%. For the same molecule, the “Average plasma concentration Teicoplanin” value in data set [4] (teicoplanin/PEP 64 mg/kg teicoplanin, 60 min) stood at 9.50 µg/mL; in data set [4] (teicoplanin/PEP 64 mg/kg teicoplanin, 120 min), 10.36 µg/mL; in data set [4] (teicoplanin/PEP 64 mg/kg teicoplanin, 180 min), 12.22 µg/mL; in data set [4] (teicoplanin/PEP 64 mg/kg teicoplanin, 240 min), 11.29 µg/mL; in data set [4] (teicoplanin/PEP (64 mg/kg teicoplanin, 400 mg/kg sucrose stearate, glucosamine, methylcellulose), 30 min) it was 11.14 µg/mL.
In data set [5] (isepamicin/PEP 75 mg/kg isepamicin, 60 min), `CN[C@@H]1[C@@H](O)[C@@H](O[C@@H]2[C@@H](O)[C@H](O[C@H]3O[C@H](CN)[C@@H](O)[C@H](O)[C@H]3O)[C@@H](N)C[C@H]2NC(=O)[C@@H](O)CN)OC[C@]1(C)O` [Isepamicin] displayed a concentration at 60 min of 102000 ng/mL. The molecule also returned a concentration at 120 min in data set [5] (isepamicin/PEP 75 mg/kg isepamicin, 120 min) of 73600 ng/mL. The concentration at 180 min in data set [5] (isepamicin/PEP 75 mg/kg isepamicin, 180 min) was 49900 ng/mL. The concentration at 240 min in data set [5] (isepamicin/PEP 75 mg/kg isepamicin, 240 min) worked out at 43900 ng/mL. The same molecule yielded a concentration at 360 min in data set [5] (isepamicin/PEP 75 mg/kg isepamicin, 360 min) of 35800 ng/mL. Further, the concentration at 30 min in data set [5] (isepamicin/PEP (75 mg/kg isepamicin, 400 mg/kg sucrose stearate, glucosamine, methylcellulose), 30 min) is 84200 ng/mL.
With `C[C@H]1[C@H](NC(=O)/C(=N\OC(C)(C)C(=O)O)c2csc(N)n2)C(=O)N1S(=O)(=O)O` [Aztreonam], in data set [6] (other: intraduodenal, aztreonam/PEP 40 mg/kg aztreonam, 60 min), the concentration at 60 min was determined as 97000 ng/mL. For the same molecule, the concentration at 90 min in data set [6] (other: intraduodenal, aztreonam/PEP 40 mg/kg aztreonam, 90 min) was 87900 ng/mL. The concentration at 120 min in data set [6] (other: intraduodenal, aztreonam/PEP 40 mg/kg aztreonam, 120 min) was 89600 ng/mL. The molecule further gave a concentration at 180 min in data set [6] (other: intraduodenal, aztreonam/PEP 40 mg/kg aztreonam, 180 min) of 67000 ng/mL. The same molecule yielded a concentration at 240 min in data set [6] (other: intraduodenal, aztreonam/PEP 40 mg/kg aztreonam, 240 min) of 55200 ng/mL. Also, in data set [6] (other: intraduodenal, aztreonam/PEP (40 mg/kg aztreonam, 400 mg/kg sucrose palmitate, glucosamine, methylcellulose, arginine), 30 min), the concentration at 30 min was found to be 95400 ng/mL. In data set [6] (aztreonam/PEP 40 mg/kg aztreonam, read-out: percent bioavailability), the bioavailability turned out to be 91.1 ± 14.6%.
